Article PMC3561363, “A Novel Retro-Inverso Peptide Inhibitor Reduces Amyloid Deposition, Oxidation and Inflammation and Stimulates Neurogenesis in the APPswe/PS1ΔE9 Mouse Model of Alzheimer’s Disease” (PLoS ONE, 2013)
Where a SMILES comes first, the peptide text is derived from it.

Tests used:
[1] = tested on: Aβ42; experiment: Immunoassay for Aβ oligomers (in vitro), 6E10/biotinylated 6E10 sandwich; format: biochemical; conditions: 2∶1 and 1∶1 molar ratios of inhibitor:Aβ42; 12.5 µM Aβ42, PBS pH 7.4, 25°C, even at earliest time points 4 and 8 h
Protocol: This is a more sensitive test than the ThT assay for the detection of early oligomeric forms of Aβ [16]. Microtitre plates (96-well, Maxisorb) were coated with 6E10, diluted 1∶1000 in 10 mM PBS, pH 7.4, for overnight at 4°C. The plates were blocked with assay buffer (Tris-buffered saline (TBS) (pH 7.4), containing 0.05% γ-globulins and 0.005% Tween 20) plus 5% gelatine for 1 h at 37°C. Samples of peptide (12.5 µM Aβ42 and 0, 3.125, 6.25, 12.5, 25 or 62.5 µM RI-OR2–TAT in 10 mM PBS, pH 7.4) were incubated at 25°C for 0, 4, 8, 24 or 48 h, diluted to 1 µM Aβ, and plated in triplicate. The plates were incubated for 1 h at 37°C and then washed with PBS plus 0.05% Tween-20 (PBST). A 1∶1,000 dilution of biotinylated 6E10 was then added to each well, left for 1 h at 37°C, and the plates were washed with PBST. Europium-linked streptavidin was then added to the wells at 1∶500 dilution in StrepE buffer (TBS containing 20 µM DTPA, 0.5% bovine serum albumin, and 0.05% γ-globulins), incubated for 1 h, and washed as before. Enhancer solution was added and the plates were read on a Wallac Victor 2 plate reader, using the time-resolved fluorescence setting for europium.

[2] = molecular target: Aβ42 fibrils (Homo sapiens, UniProt P05067); experiment: Surface plasmon resonance (SPR), immobilized Aβ42 fibrils; format: binding
Protocol: These experiments were conducted using a Sensi Q semi-automatic SPR machine (ICx Nomadics). This apparatus has two parallel flow cells; one was used to immobilize Aβ42 fibrils while the other was used as “reference” (empty surface). A COOH5 sensor chip (ICx Nomadics) was employed for this purpose and the peptide was immobilized by amine coupling chemistry. Briefly, after surface activation, the peptide preparation was diluted to 10 µM in acetate buffer (pH 4.0) and then injected for 5 min at a flow rate of 30 µl/min. Any remaining activated groups were blocked with ethanolamine (pH 8.0). The final immobilization level was ∼5,000 resonance units (1 RU = 1 pg of protein/mm^2). The empty “reference” surface was prepared in parallel using the same immobilization procedure, but without addition of the peptide. Sensorgrams were then obtained via injection of three different concentrations of RI-OR2–TAT (1, 3 and 6 µM), as well as the vehicle (PBS with 0.005% Tween 20), over the immobilized ligand or control surface, in parallel. These SPR data can be interpreted to provide an estimate for the affinity of binding of the inhibitors to Aβ fibrils, [28]. Data for the three concentrations of RI-OR2-TAT were fitted separately by Qdat software [ICx Nomadics] using the 1∶1 pseudo-first order Langmuir interaction model. Eq. 1 was used to fit the association while the dissociation was fitted by eq. 2. The rate constants (kon and koff) were used to calculate kd as reported in eq. 3. [drawing 1] (1) [drawing 2] (2) [drawing 3] (3) Where Rt is binding response at time t; C is the molar concentration of the analyte at the interaction surface at time t; Rmax is the maximal binding response; R0 is the binding response at time t0 (i. e. time at the onset of the dissociation phase); kon is the association rate constant; koff is the dissociation rate constant. Values were expressed as a mean ± SD.

[3] = tested on: doublecortin-expressing neurons in APP/PS1 mouse dentate gyrus; experiment: Young immature neurons, doublecortin immunostaining, dentate region; format: in vivo; conditions: 100 nmol/kg i.p. once daily, 21 days, 10 months old APP/PS1 mice, vs saline, p<0.0001, 4 animals per group
[4] = tested on: 8-oxo-guanine in APP/PS1 mouse cortex; experiment: Oxidative stress, 8-oxo-guanine immunostaining, cortex; format: in vivo; conditions: 100 nmol/kg i.p. once daily, 21 days, 10 months old APP/PS1 mice, vs saline, p<0.0001, 4 animals per group
Protocol: APPswe/PS1ΔE9 mice with a C57Bl/6 background (APP/PS1 mice) were obtained from the Jackson lab (http://research.jax.org/repository/alzheimers.html). […] To look at the effects of RI-OR2-TAT on mouse brain pathology (experiment 2), 8 female 10-months-old APP/PS1 mice were used. The animals were housed in single cages in a temperature controlled holding room (21.5°C±1) with 12∶12 h light and dark cycle. Food and water was available ad libitum.
For experiment 2, 4 animals were injected intraperitonially (i.p.) with 0.9% NaCl (vehicle control) and the other 4 with RI-OR2-TAT (100 nmol/kg in 0.9% NaCl) once daily, for 21 days. […]
For experiment 2 (effects on brain pathology), sections were examined for activated microglia (using anti-Iba-1 antibody), oxidative stress (anti-8-oxo-guanine antibody), immature neurons (anti-doublecourtin antibody) or total plaque load (anti-Aβ antibody). […] Oxidative stress was assessed by denaturing DNA in each section using 2N HCl and the sections were then stained for 8-oxo guanine (1∶200 dilution, MAB3560, Millipore). Young immature neurons were detected by immunostaining for doublecortin (1∶200 dilution, sc-66911, Santa Cruz Biotechnology). Total plaque load was quantified by immunostaining for β-amyloid (1∶200 dilution, Invitrogen, 71–5800).
All sections were visualized using an Axio Scope 1 fluorescence microscope (Zeiss, Germany). […]

Aβ42 fibrils, sequence (P05067 672-713 limits assumed): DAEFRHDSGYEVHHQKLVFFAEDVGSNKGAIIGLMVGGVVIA

fold lower kd than previously reported for RI-OR2 ([2]; Aβ42 fibrils, SPR, RI-OR2 value from ref 16): ~100 -fold
koff ([2]; SPR, 1, 3 and 6 µM, 1∶1 Langmuir model, PBS with 0.005% Tween 20, mean ± SD, read-out: koff (dissociation rate constant)): 0.00037 ± 0.00015 s⁻¹
kon ([2]; SPR, 1, 3 and 6 µM, 1∶1 Langmuir model, PBS with 0.005% Tween 20, mean ± SD, read-out: kon (association rate constant)): 3680 ± 615 M⁻¹ s⁻¹
Kd ([2]; SPR, Aβ42 fibrils, from koff and kon, 1∶1 Langmuir model, three concentrations fitted separately, read-out: kd (calculated apparent affinity)): 58 to 125 nM
SMILES: CC(=O)N[C@H](CCCNC(=N)N)C(=O)NCC(=O)N[C@H](Cc1ccccc1)C(=O)N[C@H](Cc1ccccc1)C(=O)N[C@@H](C(=O)N[C@H](CC(C)C)C(=O)N[C@H](CCCCN)C(=O)NCC(=O)N[C@H](CCCNC(=N)N)C(=O)N[C@H](CCCNC(=N)N)C(=O)N[C@H](CCCNC(=N)N)C(=O)N[C@H](CCCNC(=N)N)C(=O)N[C@H](CCC(N)=O)C(=O)N[C@H](CCCNC(=N)N)C(=O)N[C@H](CCCNC(=N)N)C(=O)N[C@H](CCCCN)C(=O)N[C@H](CCCCN)C(=O)N[C@H](CCCNC(=N)N)C(=O)NCC(=O)N[C@H](Cc1ccc(O)cc1)C(N)=O)C(C)C [RI-OR2-TAT, Ac-rGffvlkGrrrrqrrkkrGy-NH2] (HELM PEPTIDE1{[ac].[dR].G.[dF].[dF].[dV].[dL].[dK].G.[dR].[dR].[dR].[dR].[dQ].[dR].[dR].[dK].[dK].[dR].G.[dY].[am]}$$$$V2.0)
development of immunoassay signal (oligomer formation) [1]: considerably reduced the development of an immunoassay signal
increase in mean number of young doublecortin-expressing neurons [3]: 210%
reduction of 8-oxo-guanine immunostaining (oxidative damage) [4]: 25%
